In patent publication US20260199297A1, “FERROPTOSIS INDUCERS TO TREAT CANCER” (The University of Toledo, priority 2022, published 2026):
Where two headings read alike, the source gives them in different places.

Assays:
[1] = test system: protein bands between 25 kD to 38 kD; assay: Competitive binding assay against probe PPd (in-gel fluorescence); conditions: 20 μM concentration; bands 25 kD to 38 kD
MDA-MB-231 cells = assay: Cytotoxicity (methylene blue cell viability), MDA-MB-231; format: cell-based; conditions: Homo sapiens
Experimental: (§1) Having synthesized the CETZOLE analogs, their cytotoxic activity was evaluated. […] NCI-H522 RV-GFP is the corresponding control with RV-GFP tag, but without SLC7A11 overexpression. […] The cytotoxicity screening was conducted as described previously.
(§2) Cell lines were cultured in a humidified atmosphere containing 10% CO2 in Dulbecco's modified Eagle's medium (Mediatech, Inc) supplemented with 10% fetal bovine serum (Atlanta Biologicals). Cell types used MEFs, HT1080 (human fibrosarcoma cells), NARF2 (osteosarcoma), WI-38 (human embryonic lung fibroblast), MDA MB 231 (breast cancer), HCT-116 (human colon), and NCI-H522 (Non-Small Cell Lung Cancer) cell lines. To determine viability throughout these examples, 5,000 cells were plated per well of a 96-well plate and drugs were added 1 day later. Cells were stained 1 to 3 days later with a saturated solution of methylene blue in 50% ethanol. Plates were rinsed and retained dye was quantified by spectrophotometry. Absorbance was normalized to DMSO and given as 1 or 100% for cell viability. Results are representative of at least two independent experiments. Statistical significance was assessed using the Student's t test. All commercially available chemicals were obtained from Cayman Chemicals unless otherwise noted.

NCI-H522 cells = assay: Cytotoxicity (methylene blue cell viability), NCI-H522; format: cell-based, human; conditions: for IC50: Homo sapiens
Experimental: as §1, §2

HT-1080 cells = assay: Cytotoxicity (methylene blue cell viability), HT-1080; format: cell-based, human; conditions: Homo sapiens
Experimental: as §1, §2

NCI-H522 RV-GFP cells = assay: Cytotoxicity (methylene blue cell viability), NCI-H522 RV-GFP control clone; format: cell-based, human; conditions: Homo sapiens, NCI-H522; Table 1; control clone with RV-GFP tag; read-out: Half maximal inhibitory concentration (IC50), NCI-H522 Rv-GFP
Experimental: as §1, §2

NARF2 cells = assay: Cytotoxicity (methylene blue cell viability), NARF2; format: cell-based, human; conditions: Homo sapiens; Table 1; NARF2 osteosarcoma cells; read-out: Half maximal inhibitory concentration (IC50), NARF2
Experimental: as §1, §2

[2] = test system: NCI-H522, NCI-H522 GFP-SLC7A11 #8, NCI-H522 RV-GFP, HT-1080, NARF2 and MDA-MB 231 cell lines; assay: Cytotoxicity screening across the tested cell lines; format: cell-based; conditions: summary over all tested cell lines; read-out: IC50 values against the tested cell lines
Experimental: as §1, §2

[3] = test system: NCI-H522 GFP-SLC7A11 #8 cells; assay: Cytotoxicity (methylene blue cell viability), NCI-H522 clone overexpressing GFP-SLC7A11; format: cell-based, human; conditions: Homo sapiens; Table 1; NCI-H522 clone overexpressing GFP-tagged SLC7A11; read-out: Half maximal inhibitory concentration (IC50), NCI-H522 GFP-SCL7A11 #8
Experimental: as §1, §2

[4] = test system: MEFs (Mouse Embryonic Fibroblasts); assay: Cytotoxicity on normal cell line MEFs; format: cell-based; conditions: Fibroblast; Table 2; Mouse Embryonic Fibroblasts; read-out: Half maximal inhibitory concentration (IC50), Normal Cell Line Mefs
Experimental: (§3) To determine cytotoxicity at a therapeutically more relevant concentration, cells were treated at a single concentration of […] (FIG. 12).
as §2

[5] = test system: NCI-H522 and HT-1080 cancer cell lines, WI38 and MEFs normal cell lines; assay: Selective cytotoxicity assay at a single concentration; format: cell-based; parameters: dose or concentration left out as unconfirmed; conditions: NCI-H522, HT-1080, WI38, MEFs
Experimental: Overall, WI38 cells were the most tolerant to the treatment, whereas MEF cells were partially tolerant and relatively less sensitive than both NCI-H522 and HT-1080 cells. To determine cytotoxicity at a therapeutically more relevant concentration, cells were treated at a single concentration of […] (FIG. 12).
as §2, with “noted. Compound CETZOLE 1 and the analogs were synthesized as highlighted.” for “noted.”

WI38 cells = assay: Cytotoxicity on normal cell line WI38; format: cell-based, human; conditions: Homo sapiens, WI-38; Table 2; lung tissue fibroblast; read-out: Half maximal inhibitory concentration (IC50), Normal Cell Line WI38
Experimental: as §3, §2

[6] = MDA-MB-231, Table 3, probes and negative controls, read-out: IC50, MDA-MB-231
[7] = NCI-H522, Table 3, probes and negative controls, read-out: IC50, NCI-H522
[8] = HT-1080, Table 3, probes and negative controls, read-out: IC50, HT-1080
[9] = Table 1, MDA-MB-231 breast cancer cell line, read-out: Half maximal inhibitory concentration (IC50), MDA-MB-231
[10] = Table 1, NCI-H522 cancer cell line, read-out: Half maximal inhibitory concentration (IC50), NCI-H522
[11] = Table 1, HT-1080 fibrosarcoma cell line, read-out: Half maximal inhibitory concentration (IC50), HT-1080
[12] = NCI-H522, Table 2, read-out: Half maximal inhibitory concentration (IC50), Cancer Cell Line NCI-H522
[13] = HT-1080, Table 2, read-out: Half maximal inhibitory concentration (IC50), Cancer Cell Line HT1080

Compound | IC50 (MDA-MB-231 cells; [6]) [µM] | IC50 (NCI-H522 cells; [7]) [µM] | IC50 (HT-1080 cells; [8]) [µM] | IC50 (MDA-MB-231 cells; [9]) [µM] | IC50 (NCI-H522 RV-GFP cells) [µM] | IC50 (NARF2 cells) [µM] | IC50 (NCI-H522 cells; [10]) [µM] | IC50 (HT-1080 cells; [11]) [µM] | IC50 [3] [µM] | other results
Cc1onc(C(=O)N2CCN(C(c3ccc(Cl)cc3)c3ccc(Cl)cc3)CC2)c1[N+](=O)[O-] [ML210] | – | – | – | – | – | – | – | – | – | competition of PPd-labelled protein bands by known ferroptosis inducers [1]: compete out the same protein bands
CCN(CC)c1ccc2cc(C(=O)NC3CCC(c4csc(Br)n4)=C3C)c(=O)oc2c1 (stereo not drawn) [NPa, N-(3-(2-Bromothiazol-4-yl)-2-methylcyclopent-2-en-1-yl)-7-(diethylamino)-2-oxo-2H-chromene-3-carboxamide] | > 20 | > 20 | > 20 | – | – | – | – | – | – | –
CC1=C(c2csc(Br)n2)CCC1NC(=O)CCCC[C@@H]1SC[C@@H]2NC(=O)N[C@@H]21 (stereo partly drawn) [NPb, N-(3-(2-Bromothiazol-4-yl)-2-methylcyclopent-2-en-1-yl)-5-((3aS,4S,6aR)-2-oxohexahydro-1H-thieno[3,4-d]imidazol-4-yl)pentanamide] | > 20 | > 20 | > 20 | – | – | – | – | – | – | –
C#CCO/N=C1\CC(c2csc(Br)n2)=C(C)C1O (stereo not drawn) [NPd, 4-(2-Bromothiazol-4-yl)-2-hydroxy-3-methylcyclopent-3-en-1-one O-prop-2-yn-1-yl oxime] | > 20 | > 20 | > 20 | – | – | – | – | – | – | –
C#CCCC(=O)Nc1ccc(C(=O)c2ccc(NC(=O)CO/N=C3\CC(c4csc(Br)n4)=C(C)C3O)cc2)cc1 (stereo not drawn) [NPe, (E)-N-(4-(4-(2-(((4-(2-Bromothiazol-4-yl)-2-hydroxy-3-methylcyclopent-3-en-1-ylidene)amino)oxy)acetamido)benzoyl)phenyl)pent-4-ynamide] | > 20 | > 20 | > 20 | – | – | – | – | – | – | –
C#Cc1nc(C2=C(C)C(NC(=O)c3cc4ccc(N(CC)CC)cc4oc3=O)CC2)cs1 (stereo not drawn) [PPa, 7-(Diethylamino)-N-(3-(2-ethynylthiazol-4-yl)-2-methylcyclopent-2-en-1-yl)-2-oxo-2H-chromene-3-carboxamide] | 1.2 ± 1.03 | 4.56 ± 1.43 | 4.58 ± 0.87 | – | – | – | – | – | – | IC50 (NCI-H522 cells; cell line not given, value matches NCI-H522 of Table 3, read-out: IC50 (moderate cytotoxicity of PPa)): 4.56 ± 1.43 µM
C#Cc1nc(C2=C(C)C(NC(=O)CCCC[C@@H]3SC[C@@H]4NC(=O)N[C@@H]43)CC2)cs1 (stereo partly drawn) [PPb, N-(3-(2-Ethynylthiazol-4-yl)-2-methylcyclopent-2-en-1-yl)-5-((3aS,4S,6aR)-2-oxohexahydro-1H-thieno[3,4-d]imidazol-4-yl)pentanamide] | > 20 | 17.9 ± 3.98 | 7.91 ± 1.9 | – | – | – | – | – | – | IC50 (NCI-H522 cells; NCI-H522, unit inferred, read-out: IC50 on NCI-H522 cell line): 17.9 ± 3.98 µM; activity relative to CETZOLE 1 (NCI-H522 cells; NCI-H522 cell line): five-fold less active
CC1=C(c2csc(Br)n2)CCC1O (stereo not drawn) [compound 13, 3-(2-Bromothiazol-4-yl)-2-methylcyclopent-2-en-1-ol] | > 20 | > 20 | > 20 | – | – | – | – | – | – | –
C#Cc1nc(C2=C(C)C(=O)/C(=N/O)C2)cs1 [compound 14, (E)-3-(2-Ethynylthiazol-4-yl)-5-(hydroxyimino)-2-methylcyclopent-2-en-1-one] | – | – | – | 8.05 ± 0.63 | > 20 | > 20 | > 20 | 5.29 ± 2.6 | > 20 | IC50 [2]: > 20 µM
C#Cc1nc(C2=C(C)C(=O)/C(=N/OC(C)=O)C2)cs1 [compound 18] | – | – | – | 18.5 ± 1.7 | > 20 | > 20 | 11 ± 1.53 | > 20 | > 20 | IC50 [2]: > 20 µM
C#Cc1nc(C2=C(C)C(O)/C(=N/O)C2)cs1 (stereo not drawn) [compound 19, (E)-4-(2-Ethynylthiazol-4-yl)-2-hydroxy-3-methylcyclopent-3-en-1-one oxime] | – | – | – | 6.57 ± 0.5 | 5.55 ± 0.01 | > 20 | 4.68 ± 1.03 | 5.77 ± 0.67 | > 20 | –
C#Cc1nc(C2=C(C)C(OC(=O)CC)/C(=N/OC(=O)CC)C2)cs1 (stereo not drawn) [compound 20b, (E)-3-(2-Ethynylthiazol-4-yl)-2-methyl-5-((propionyloxy)imino)cyclopent-2-en-1-yl propionate] | – | – | – | 0.18 ± 0.03 | 0.59 ± 0.22 | 13.4 ± 3.3 | 0.12 ± 0.06 | 0.15 ± 0.02 | 2.06 ± 0.54 | IC50 [4]: 0.28 ± 0.04 µM; IC50 (NCI-H522 cells; [12]): 0.12 ± 0.06 µM; cell death at a single concentration [5]: killed only the cancer cell lines NCI-H522 and HT-1080; IC50 (HT-1080 cells; [13]): 0.15 ± 0.02 µM; IC50 (WI38 cells): 2.52 ± 0.92 µM
C#Cc1nc(C2=C(C)C(OC(=O)CCC)/C(=N/OC(=O)CCC)C2)cs1 (stereo not drawn) [compound 20c, (E)-5-((Butyryloxy)imino)-3-(2-ethynylthiazol-4-yl)-2-methylcyclopent-2-en-1-yl butyrate] | – | – | – | 0.83 ± 0.15 | 0.28 ± 0.13 | 5.95 ± 1.8 | 0.13 ± 0.09 | 0.19 ± 0.09 | 1.93 ± 0.8 | IC50 [4]: 0.79 ± 0.04 µM; IC50 (NCI-H522 cells; [12]): 0.13 ± 0.09 µM; cell death at a single concentration [5]: killed only the cancer cell lines NCI-H522 and HT-1080; IC50 (HT-1080 cells; [13]): 0.19 ± 0.09 µM; IC50 (WI38 cells): 1.19 ± 0.3 µM
C#Cc1nc(C2=C(C)C(OC(=O)CCCCCCC)/C(=N/OC(=O)CCCCCCC)C2)cs1 (stereo not drawn) [compound 20e, (E)-3-(2-Ethynylthiazol-4-yl)-2-methyl-5-((octanoyloxy)imino)cyclopent-2-en-1-yl octanoate] | – | – | – | 19.1 ± 2.8 | > 20 | > 20 | > 20 | > 20 | > 20 | IC50 [2]: > 20 µM
C#Cc1nc(C2=C(C)C(O)/C(=N\OCc3ccccc3)C2)cs1 (stereo not drawn) [compound 21, (Z)-4-(2-Ethynylthiazol-4-yl)-2-hydroxy-3-methylcyclopent-3-en-1-one O-benzyl oxime] | – | – | – | 13.4 ± 5.3 | 3.02 ± 1.7 | > 20 | 1.18 ± 0.8 | 0.93 ± 0.12 | 2.17 ± 1.5 | –
O=C(O)c1cc(/N=N/c2ccc(S(=O)(=O)Nc3ccccn3)cc2)ccc1O [sulfasalazine] | – | – | – | – | – | – | – | – | – | competition of PPd-labelled protein bands by known ferroptosis inducers [1]: did not show any significant competition
